ChEMBL document CHEMBL4507297, “Data for DCP probe PF-04457845” (2021)

Experiments:
[1] = tested on: Phosphatidylinositol 4,5-bisphosphate 3-kinase catalytic subunit alpha isoform (Homo sapiens), P42336 [Q546K]; settings: Compound concentration 1000.0 nM
[2] = tested on: Epidermal growth factor receptor (Homo sapiens), P00533 [G719S]; settings: Compound concentration 1000.0 nM
[3] = target: Serine/threonine-protein kinase Sgk1 (Homo sapiens) (UniProt O00141); settings: Compound concentration 1000.0 nM
[4] = species: Rattus norvegicus; settings: Compound concentration 10.0 uM
[5] = target: Cyclin-dependent kinase 2 (Homo sapiens) (UniProt P24941); settings: Compound concentration 1000.0 nM
[6] = target: Serine/threonine-protein kinase 36 (Homo sapiens) (UniProt Q9NRP7); settings: Compound concentration 1000.0 nM
[7] = target: Cyclin-dependent kinase 19 (Homo sapiens) (UniProt Q9BWU1); settings: Compound concentration 1000.0 nM
[8] = tested on: Proto-oncogene tyrosine-protein kinase receptor Ret (Homo sapiens), P07949 [V804L]; settings: Compound concentration 1000.0 nM
[9] = tested on: Epidermal growth factor receptor (Homo sapiens), P00533 [T790M]; settings: Compound concentration 1000.0 nM
[10] = target: Phosphatidylinositol 4,5-bisphosphate 3-kinase catalytic subunit alpha isoform (Homo sapiens) (UniProt P42336); settings: Compound concentration 1000.0 nM
[11] = tested on: Epidermal growth factor receptor (Homo sapiens), P00533 [UNDEFINED MUTATION]; settings: Compound concentration 1000.0 nM
[12] = target: Cyclin-dependent kinase 11B (Homo sapiens) (UniProt P21127); settings: Compound concentration 1000.0 nM
[13] = target: Protein kinase C eta type (Homo sapiens) (UniProt P24723); settings: Compound concentration 1000.0 nM
[14] = target: Activin receptor type-1 (Homo sapiens) (UniProt Q04771); settings: Compound concentration 1000.0 nM
[15] = target: Mitogen-activated protein kinase kinase kinase kinase 2 (Homo sapiens) (UniProt Q12851); settings: Compound concentration 1000.0 nM
[16] = target: Serine/threonine-protein kinase 24 (Homo sapiens) (UniProt Q9Y6E0); settings: Compound concentration 1000.0 nM
[17] = target: Muscarinic acetylcholine receptor M5 (Homo sapiens) (UniProt P08912); settings: Compound concentration 10.0 uM
[18] = target: Cytoplasmic tyrosine-protein kinase BMX (Homo sapiens) (UniProt P51813); settings: Compound concentration 1000.0 nM
[19] = target: Ribosomal protein S6 kinase alpha-2 (Homo sapiens) (UniProt Q15349); settings: Compound concentration 1000.0 nM
[20] = target: LIM domain kinase 2 (Homo sapiens) (UniProt P53671); settings: Compound concentration 1000.0 nM
[21] = tested on: Mast/stem cell growth factor receptor Kit (Homo sapiens), P10721 [V559D]; settings: Compound concentration 1000.0 nM
[22] = target: Myosin light chain kinase family member 4 (Homo sapiens) (UniProt Q86YV6); settings: Compound concentration 1000.0 nM
[23] = target: Cyclin-dependent kinase 18 (Homo sapiens) (UniProt Q07002); settings: Compound concentration 1000.0 nM
[24] = target: Macrophage colony-stimulating factor 1 receptor (Homo sapiens) (UniProt P07333); settings: Compound concentration 1000.0 nM
[25] = target: Serine/threonine-protein kinase Sgk3 (Homo sapiens) (UniProt Q96BR1); settings: Compound concentration 1000.0 nM
[26] = target: Mitogen-activated protein kinase kinase kinase 5 (Homo sapiens) (UniProt Q99683); settings: Compound concentration 1000.0 nM
[27] = target: Serine/threonine-protein kinase PLK1 (Homo sapiens) (UniProt P53350); settings: Compound concentration 1000.0 nM
[28] = tested on: Epidermal growth factor receptor (Homo sapiens), P00533 [UNDEFINED MUTATION]; settings: Compound concentration 1000.0 nM; remark: listed apart in the source
[29] = target: Histamine H3 receptor (Homo sapiens) (UniProt Q9Y5N1); settings: Compound concentration 10.0 uM
[30] = target: Serine/threonine-protein kinase N1 (Homo sapiens) (UniProt Q16512); settings: Compound concentration 1000.0 nM
[31] = target: Serine/threonine-protein kinase 4 (Homo sapiens) (UniProt Q13043); settings: Compound concentration 1000.0 nM
[32] = target: Protein kinase C delta type (Homo sapiens) (UniProt Q05655); settings: Compound concentration 1000.0 nM
[33] = target: RAC-beta serine/threonine-protein kinase (Homo sapiens) (UniProt P31751); settings: Compound concentration 1000.0 nM
[34] = target: Dual specificity protein kinase CLK4 (Homo sapiens) (UniProt Q9HAZ1); settings: Compound concentration 1000.0 nM
[35] = target: Cyclin-dependent kinase 8 (Homo sapiens) (UniProt P49336); settings: Compound concentration 1000.0 nM
[36] = target: Phosphatidylinositol 3-kinase catalytic subunit type 3 (Homo sapiens) (UniProt Q8NEB9); settings: Compound concentration 1000.0 nM
[37] = target: Tyrosine-protein kinase Fyn (Homo sapiens) (UniProt P06241); settings: Compound concentration 1000.0 nM
[38] = target: Tyrosine-protein kinase ABL2 (Homo sapiens) (UniProt P42684); settings: Compound concentration 1000.0 nM
[39] = target: Serine/threonine-protein kinase DCLK2 (Homo sapiens) (UniProt Q8N568); settings: Compound concentration 1000.0 nM
[40] = target: Ephrin type-A receptor 4 (Homo sapiens) (UniProt P54764); settings: Compound concentration 1000.0 nM
[41] = tested on: Tyrosine-protein kinase ABL1 (Homo sapiens), P00519 [Y253F]; settings: Compound concentration 1000.0 nM
[42] = target: Proto-oncogene tyrosine-protein kinase ROS (Homo sapiens) (UniProt P08922); settings: Compound concentration 1000.0 nM

Chain of Serine/threonine-protein kinase PLK1 (Homo sapiens) (P53350 whole entry): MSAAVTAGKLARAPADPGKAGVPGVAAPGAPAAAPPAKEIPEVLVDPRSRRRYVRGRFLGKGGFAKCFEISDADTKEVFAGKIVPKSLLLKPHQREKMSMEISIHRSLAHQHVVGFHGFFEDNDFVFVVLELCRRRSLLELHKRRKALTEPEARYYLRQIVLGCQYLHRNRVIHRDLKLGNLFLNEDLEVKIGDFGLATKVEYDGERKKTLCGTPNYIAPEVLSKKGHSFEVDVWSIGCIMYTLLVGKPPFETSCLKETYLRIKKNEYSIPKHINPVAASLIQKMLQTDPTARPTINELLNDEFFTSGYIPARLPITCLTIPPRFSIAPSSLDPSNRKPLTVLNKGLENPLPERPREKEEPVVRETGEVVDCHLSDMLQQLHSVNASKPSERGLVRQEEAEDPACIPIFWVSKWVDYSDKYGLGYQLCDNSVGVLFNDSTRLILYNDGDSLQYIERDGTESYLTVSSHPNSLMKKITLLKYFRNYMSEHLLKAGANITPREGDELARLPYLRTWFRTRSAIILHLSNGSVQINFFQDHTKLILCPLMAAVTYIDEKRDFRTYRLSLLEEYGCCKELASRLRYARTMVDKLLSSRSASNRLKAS
Chain of Protein kinase C eta type (Homo sapiens) (P24723 whole entry): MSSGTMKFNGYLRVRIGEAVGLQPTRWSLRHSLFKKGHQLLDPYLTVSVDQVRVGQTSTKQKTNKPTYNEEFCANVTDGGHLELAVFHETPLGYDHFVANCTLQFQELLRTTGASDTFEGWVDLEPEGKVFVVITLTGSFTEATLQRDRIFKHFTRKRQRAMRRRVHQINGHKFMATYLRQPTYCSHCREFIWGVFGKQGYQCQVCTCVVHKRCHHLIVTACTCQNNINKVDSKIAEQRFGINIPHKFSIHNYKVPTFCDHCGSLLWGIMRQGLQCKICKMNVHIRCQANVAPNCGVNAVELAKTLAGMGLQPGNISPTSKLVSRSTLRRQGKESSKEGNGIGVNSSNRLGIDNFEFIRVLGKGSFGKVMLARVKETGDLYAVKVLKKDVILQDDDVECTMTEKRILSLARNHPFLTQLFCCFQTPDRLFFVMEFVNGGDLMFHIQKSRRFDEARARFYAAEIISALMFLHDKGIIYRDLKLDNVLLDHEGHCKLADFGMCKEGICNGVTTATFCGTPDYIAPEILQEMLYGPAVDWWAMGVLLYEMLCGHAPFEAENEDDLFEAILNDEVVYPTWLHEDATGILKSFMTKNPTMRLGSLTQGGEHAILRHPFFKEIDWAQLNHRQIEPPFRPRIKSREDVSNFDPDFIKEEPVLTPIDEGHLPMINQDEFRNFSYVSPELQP
Chain of Mast/stem cell growth factor receptor Kit (Homo sapiens), P10721 [V559D] (P10721 whole entry V559D): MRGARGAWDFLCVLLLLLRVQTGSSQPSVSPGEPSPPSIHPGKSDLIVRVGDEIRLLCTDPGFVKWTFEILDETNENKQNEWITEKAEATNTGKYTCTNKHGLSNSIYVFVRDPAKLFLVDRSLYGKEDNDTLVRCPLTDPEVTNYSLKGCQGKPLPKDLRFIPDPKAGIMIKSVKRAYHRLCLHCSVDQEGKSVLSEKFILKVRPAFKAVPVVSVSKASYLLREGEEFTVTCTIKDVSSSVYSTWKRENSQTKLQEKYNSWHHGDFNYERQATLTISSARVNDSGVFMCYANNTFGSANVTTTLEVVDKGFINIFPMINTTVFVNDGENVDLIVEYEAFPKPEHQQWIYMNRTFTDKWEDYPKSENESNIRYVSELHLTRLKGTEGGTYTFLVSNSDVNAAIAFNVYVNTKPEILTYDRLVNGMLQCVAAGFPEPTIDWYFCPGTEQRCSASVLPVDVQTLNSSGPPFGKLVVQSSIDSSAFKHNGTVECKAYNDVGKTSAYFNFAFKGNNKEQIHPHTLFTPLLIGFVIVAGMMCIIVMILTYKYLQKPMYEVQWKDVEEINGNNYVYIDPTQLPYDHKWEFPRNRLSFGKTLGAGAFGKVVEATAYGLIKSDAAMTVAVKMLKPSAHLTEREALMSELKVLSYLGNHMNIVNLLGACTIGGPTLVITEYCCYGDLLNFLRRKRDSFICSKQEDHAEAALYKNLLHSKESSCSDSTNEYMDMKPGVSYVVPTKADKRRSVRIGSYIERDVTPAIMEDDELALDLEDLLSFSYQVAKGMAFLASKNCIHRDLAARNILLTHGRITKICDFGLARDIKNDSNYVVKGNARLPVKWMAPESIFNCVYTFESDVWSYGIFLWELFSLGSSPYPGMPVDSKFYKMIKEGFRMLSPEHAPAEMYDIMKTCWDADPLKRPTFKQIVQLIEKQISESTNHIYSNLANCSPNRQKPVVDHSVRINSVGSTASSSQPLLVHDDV
Chain of Macrophage colony-stimulating factor 1 receptor (Homo sapiens) (P07333 whole entry): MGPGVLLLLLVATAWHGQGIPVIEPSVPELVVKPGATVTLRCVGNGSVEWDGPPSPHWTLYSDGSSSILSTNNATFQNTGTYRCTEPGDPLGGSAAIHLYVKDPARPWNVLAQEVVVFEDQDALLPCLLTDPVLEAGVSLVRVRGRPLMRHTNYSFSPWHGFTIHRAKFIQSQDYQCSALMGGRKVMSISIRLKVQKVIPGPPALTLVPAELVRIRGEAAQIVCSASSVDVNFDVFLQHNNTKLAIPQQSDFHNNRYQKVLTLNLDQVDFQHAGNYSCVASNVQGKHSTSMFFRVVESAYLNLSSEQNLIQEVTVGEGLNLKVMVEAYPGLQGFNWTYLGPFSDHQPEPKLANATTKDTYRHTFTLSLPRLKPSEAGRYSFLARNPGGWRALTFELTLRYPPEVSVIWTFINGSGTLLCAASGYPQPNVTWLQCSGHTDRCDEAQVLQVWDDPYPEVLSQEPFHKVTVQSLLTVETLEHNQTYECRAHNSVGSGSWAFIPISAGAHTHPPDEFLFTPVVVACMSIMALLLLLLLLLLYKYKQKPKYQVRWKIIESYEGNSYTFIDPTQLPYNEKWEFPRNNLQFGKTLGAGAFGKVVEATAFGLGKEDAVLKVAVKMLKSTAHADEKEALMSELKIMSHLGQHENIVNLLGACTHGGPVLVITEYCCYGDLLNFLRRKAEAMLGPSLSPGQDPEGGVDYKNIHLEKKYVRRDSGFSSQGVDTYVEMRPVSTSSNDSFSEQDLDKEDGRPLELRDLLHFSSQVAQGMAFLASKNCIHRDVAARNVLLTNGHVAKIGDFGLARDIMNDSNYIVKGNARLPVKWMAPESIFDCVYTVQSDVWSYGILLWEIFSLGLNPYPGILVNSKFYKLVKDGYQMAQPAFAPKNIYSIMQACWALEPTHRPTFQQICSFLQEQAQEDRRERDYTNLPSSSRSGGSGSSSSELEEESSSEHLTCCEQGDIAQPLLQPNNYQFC
Chain of Phosphatidylinositol 4,5-bisphosphate 3-kinase catalytic subunit alpha isoform (Homo sapiens), P42336 [Q546K] (P42336 whole entry Q546K, canonical isoform): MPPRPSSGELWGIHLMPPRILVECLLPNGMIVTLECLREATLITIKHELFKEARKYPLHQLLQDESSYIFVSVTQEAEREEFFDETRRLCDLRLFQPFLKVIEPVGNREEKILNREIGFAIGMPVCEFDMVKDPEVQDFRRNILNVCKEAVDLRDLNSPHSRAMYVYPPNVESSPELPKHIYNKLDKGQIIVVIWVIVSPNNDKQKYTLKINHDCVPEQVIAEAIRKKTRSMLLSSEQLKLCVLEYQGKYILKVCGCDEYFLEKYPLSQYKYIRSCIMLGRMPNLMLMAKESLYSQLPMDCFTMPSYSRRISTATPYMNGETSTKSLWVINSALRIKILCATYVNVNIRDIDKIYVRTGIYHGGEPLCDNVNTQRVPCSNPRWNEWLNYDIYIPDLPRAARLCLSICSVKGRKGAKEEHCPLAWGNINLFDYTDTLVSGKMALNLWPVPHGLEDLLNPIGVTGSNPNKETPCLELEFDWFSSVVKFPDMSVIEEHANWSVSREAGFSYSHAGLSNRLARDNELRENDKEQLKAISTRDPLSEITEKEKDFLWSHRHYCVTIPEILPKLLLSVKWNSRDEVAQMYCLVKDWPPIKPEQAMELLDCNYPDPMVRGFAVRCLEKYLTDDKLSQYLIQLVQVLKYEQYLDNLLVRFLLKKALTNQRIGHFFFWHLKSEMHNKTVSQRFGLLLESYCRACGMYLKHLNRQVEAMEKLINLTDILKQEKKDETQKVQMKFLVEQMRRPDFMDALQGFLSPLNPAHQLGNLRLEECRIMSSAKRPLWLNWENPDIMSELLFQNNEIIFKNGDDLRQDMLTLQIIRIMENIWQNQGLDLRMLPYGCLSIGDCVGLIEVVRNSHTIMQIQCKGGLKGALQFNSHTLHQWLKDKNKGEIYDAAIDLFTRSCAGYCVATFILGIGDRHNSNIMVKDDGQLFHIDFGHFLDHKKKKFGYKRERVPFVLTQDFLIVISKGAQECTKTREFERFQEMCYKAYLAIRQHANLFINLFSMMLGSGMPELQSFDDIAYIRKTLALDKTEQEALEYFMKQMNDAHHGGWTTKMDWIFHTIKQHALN
Chain of Dual specificity protein kinase CLK4 (Homo sapiens) (Q9HAZ1 whole entry, looked up): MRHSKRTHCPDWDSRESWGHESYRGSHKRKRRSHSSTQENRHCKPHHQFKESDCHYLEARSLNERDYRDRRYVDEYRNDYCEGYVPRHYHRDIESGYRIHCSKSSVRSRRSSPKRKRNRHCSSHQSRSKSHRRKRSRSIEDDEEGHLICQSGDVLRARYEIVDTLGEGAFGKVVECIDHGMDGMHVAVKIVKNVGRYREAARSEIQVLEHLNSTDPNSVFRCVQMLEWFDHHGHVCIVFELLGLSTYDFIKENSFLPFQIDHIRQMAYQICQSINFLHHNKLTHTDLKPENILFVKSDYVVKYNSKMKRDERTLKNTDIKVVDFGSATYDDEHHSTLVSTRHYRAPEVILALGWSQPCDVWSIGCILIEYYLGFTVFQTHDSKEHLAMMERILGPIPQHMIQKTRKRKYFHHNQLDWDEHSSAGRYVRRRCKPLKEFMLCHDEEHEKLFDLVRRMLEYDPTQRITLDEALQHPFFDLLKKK
Chain of Phosphatidylinositol 4,5-bisphosphate 3-kinase catalytic subunit alpha isoform (Homo sapiens) (P42336 whole entry, canonical isoform): as the sequence (P42336 whole entry Q546K, canonical isoform) above, with K546Q counted along it

O=C(Nc1cccnn1)N1CCC(=Cc2cccc(Oc3ccc(C(F)(F)F)cn3)c2)CC1
active: residual activity [1] 45% | inhibition [4] 59.6%
inactive: residual activity [2] 99% | residual activity [3] 100% | residual activity [5] 100% | residual activity [6] 100% | residual activity [7] 100% | residual activity [8] 86% | residual activity [9] 100% | residual activity [10] 100% | residual activity [11] 69% | residual activity [12] 100% | residual activity [13] 77% | residual activity [14] 92% | residual activity [15] 100% | residual activity [16] 100% | inhibition [17] 23.5% | residual activity [18] 71% | residual activity [19] 100% | residual activity [20] 88% | residual activity [21] 75% | residual activity [22] 100% | residual activity [23] 76% | residual activity [24] 95% | residual activity [25] 93% | residual activity [26] 100% | residual activity [27] 100% | residual activity [28] 73% | inhibition [29] 8.73% | residual activity [30] 100% | residual activity [31] 77% | residual activity [32] 93% | residual activity [33] 81% | residual activity [34] 70% | residual activity [35] 100% | residual activity [36] 100% | residual activity [37] 100% | residual activity [38] 99% | residual activity [39] 81% | residual activity [40] 100% | residual activity [41] 100% | residual activity [42] 80%

O=C(Nc1cccnn1)N1CC(C/C=C/c2cncc(Oc3ccc(C(F)(F)F)cn3)n2)C1
inactive: residual activity [1] 92% | residual activity [2] 100% | residual activity [3] 85% | inhibition [4] 25.6% | residual activity [5] 100% | residual activity [6] 100% | residual activity [7] 84% | residual activity [8] 93% | residual activity [9] 100% | residual activity [10] 100% | residual activity [11] 100% | residual activity [12] 100% | residual activity [13] 100% | residual activity [14] 92% | residual activity [15] 80% | residual activity [16] 98% | inhibition [17] -0.59% | residual activity [18] 100% | residual activity [19] 100% | residual activity [20] 95% | residual activity [21] 64% | residual activity [22] 100% | residual activity [23] 100% | residual activity [24] 100% | residual activity [25] 87% | residual activity [26] 98% | residual activity [27] 87% | residual activity [28] 85% | inhibition [29] 17.3% | residual activity [30] 100% | residual activity [31] 100% | residual activity [32] 100% | residual activity [33] 100% | residual activity [34] 98% | residual activity [35] 100% | residual activity [36] 88% | residual activity [37] 100% | residual activity [38] 100% | residual activity [39] 100% | residual activity [40] 100% | residual activity [41] 92% | residual activity [42] 100%
